Source: PubChem BioAssay (NCI)
Several values for one entry are separate records, joined by “and”; a condition that tells them apart may be missing. Equal entries are not always repeated.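 Test compounds were applied to cells in 96-well plates for 48 hours at 5 doses. GI50 = concentration required for 50% inhibition of growth. TGI: concentration producing complete growth inhibition.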

Key:
Assay in all cases: NCI tumour cell line growth inhibition, 48 h
[1] = system: KM20L2 colon
[2] = system: XF 498 CNS
[3] = system: SNB-78 CNS
[4] = system: DLD-1 colon
[5] = system: M19-MEL melanoma
[6] = system: LXFL 529 NSCLC
[7] = system: RXF-631 renal
[8] = system: MDA-N

| SMILES | TGI [1] [µM] | TGI [2] | TGI [3] [µM] | TGI [4] [µM] | TGI [5] [µM] | TGI [6] [µM] | other results |
| --- | --- | --- | --- | --- | --- | --- | --- |
| Cc1cc(Cl)ccc1N1C(=O)C(=O)C(c2nc3ccccc3o2)C(=O)C1=O | > 100 | > 100 µM | > 100 | > 100 | > 100 | > 100 | – |
| C=C[Si](C)(C)COC(=O)/C(C#N)=C/C=C/c1ccccc1 | > 100 | – | > 100 | > 100 | > 100 | > 100 | – |
| COC1C(O)CC(OC2CC(OC3CC(O[C@@H]4C(=O)c5c(cc6cc(OC7CC(OC8CC(O)C(O)C(C)O8)C(O)C(C)O7)c(C)c(O)c6c5O)C[C@H]4[C@H](OC)C(=O)[C@@H](O)[C@@H](C)O)OC(C)C3O)OC(C)C2O)OC1C (stereo not given in full) | 0.533 | 0.191 µM | > 100 | > 100 | > 100 | > 100 | – |
| CCOC(=O)N1CCc2cc(OC)c(OC)cc2/C1=C/c1ccc(OC)c(OC)c1 | > 100 | 98 µM | > 100 | > 100 | > 100 | > 100 | – |
| COc1ccc(C(=O)C/C(=N/NC(N)=S)C(=O)Nc2ccccc2)cc1 | > 100 | > 100 µM | > 100 | > 100 | > 100 | > 100 | – |
| NC1=NCC(c2ccccn2)C1c1ccc(F)cc1 (stereo not given) | > 100 | > 100 µM | > 100 | > 100 | > 100 | > 100 | TGI [7]: > 100 µM |
| Cc1cccc(Cl)c1NC(=O)c1cccc([N+](=O)[O-])c1O | > 100 | > 100 µM | > 100 | > 100 | – | > 100 | TGI [7]: > 100 µM |
| COc1ccc(C2N3CCCCC3[C@@H]3c4[nH]c5ccccc5c4CCN23)c(OC)c1 (stereo not given in full) | 41.9 | 28.2 µM | 49 | > 100 | 37.4 | 49.9 | – |
| O=C([CH-]C(=O)c1ccccc1)c1ccccc1.[CH3-].[CH3-].[CH3-].[Sn+4] | 58 | – | – | – | – | – | GI50 [1]: 16.3 µM |
| CN(C)CCC(/C=C/c1ccccc1)=N\Nc1ccc(Cl)cc1 | 3.62 | – | 21.4 | 11.1 | 19.7 | 9.26 | – |
| CC(C)(C)c1cc(-c2c3nc(c(-c4cc(C(C)(C)C)cc(C(C)(C)C)c4)c4ccc([nH]4)c(-c4cc(C(C)(C)C)cc(C(C)(C)C)c4)c4nc(c(-c5cc(C(C)(C)C)cc(C(C)(C)C)c5)c5ccc2[nH]5)C=C4)C=C3)cc(C(C)(C)C)c1 | > 100 | > 100 µM | > 100 | > 100 | – | > 100 | TGI [7]: > 100 µM |
| Nc1cc(N)cc(Cc2ccccc2)c1 | – | – | – | – | – | – | TGI [8]: > 100 µM |
| Cc1cccc2cc3cccc(C(=O)NCCN(C)C)c3nc12 | 5.11 | – | 11.4 | 5.11 | 0.847 | 10.6 | TGI [7]: 27.7 µM |
| Clc1ccc(N/N=C(\c2ccccc2)c2ccccn2)nc1 | – | – | – | – | – | – | TGI [8]: 26.5 µM |
| Oc1c(Cl)cc(CN(Cc2cc(Cl)c(O)c(Cl)c2)C2CCCCC2)cc1Cl | – | – | – | – | – | – | TGI [8]: > 100 µM |
| O=[N+]([O-])c1ccc2nc3ccscc-3c2c1 | 94.9 | 87.2 µM | 90 | > 100 | 61.8 | 27.3 | TGI [7]: > 100 µM |
| CC1NCCc2c1[nH]c1cc(O)ccc21 (stereo not given) | > 100 | > 100 µM | > 100 | > 100 | > 100 | > 100 | – |
| CN(N=O)C(=O)Nc1ccc(C(=O)O)cc1 | – | – | – | – | – | – | TGI [8]: > 100 µM |
| COc1cc(/C=C2\NC(=S)C3Cc4c(OC)c(C)c(OC)c(OC)c4C2N3C)c(OC)c(C)c1OC (stereo not given) | > 100 | – | – | > 100 | > 100 | > 100 | – |

| SMILES | TGI [1] [µM] | TGI [2] | TGI [3] [µM] | TGI [4] [µM] | TGI [5] [µM] | TGI [6] [µM] | other results |
| --- | --- | --- | --- | --- | --- | --- | --- |
| CC(=O)OCC1OC(n2c(=S)n(-c3ccccc3)c(=O)c3cc(Br)ccc32)C(OC(C)=O)C(OC(C)=O)C1OC(C)=O (stereo not given) | > 100 | 61.2 µM and > 100 µM | > 100 | > 100 | > 100 | > 100 | TGI [7]: > 100 µM; GI50 [2]: 23.6 µM and > 100 µM; GI50 [3]: 41.5 µM and > 10 µM |
| COC(=O)C1=CO[C@@H](OC2OC(CO)C(O)C(O)C2O)[C@@H]2[C@H](C)[C@@H](O)[C@@H](O)[C@]12O (stereo not given in full) | – | – | – | – | – | – | TGI [8]: > 100 µM |
| COC(=O)[C@@H]1[C@H](O)[C@H](C)[C@H](O)[C@H](C)/C=C\C=C(C)C(=O)Nc2c(C)c(OC(C)=O)c3c(c2O)C(=O)C(C)=C2OCOC(=C23)C(C)=C[C@@](C)(O)[C@H](O)[C@@H](C)[C@H]1OC(C)=O | – | – | – | – | – | – | TGI [8]: 41.9 µM |
| CCOC(=O)C1=C(C)N(NC(=O)OC)C2(N)N(NC(=O)OC)C(C)=C(C(=O)OCC)C12C#N (stereo not given) | > 100 | > 100 µM | – | > 100 | > 100 | > 100 | – |
| CC(C)C[C@H]1C(=O)N2CCC[C@H]2[C@]2(O)O[C@](NC(=O)[C@@H]3C=C4c5cccc6[nH]c(Br)c(c56)C[C@H]4N(C)C3)(C(C)C)C(=O)N12 | – | – | – | – | – | – | TGI [8]: > 100 µM |
| Cc1cccc2c(N=Nc3ccccc3[N+](=O)[O-])c(O)[nH]c12 | – | – | – | – | – | – | TGI [8]: > 100 µM |
| CC1(C)Cc2nnsc2C2=C1C(=O)CCS2 | > 100 | – | – | > 100 | – | > 100 | – |
| O=C1[C@@H]2C(c3ccncc3)=NO[C@@H]2C(=O)N1c1ccc(Cc2ccc(N3C(=O)[C@H]4C(c5ccncc5)=NO[C@H]4C3=O)cc2)cc1 | > 100 | – | > 100 | > 100 | > 100 | > 100 | TGI [7]: > 100 µM |
| Cc1[nH]c(=O)nc(N/N=C/c2ccc(Cl)cc2)c1C(=O)Nc1ccc(Cl)cc1 | > 100 | 25.2 µM | > 100 | > 100 | > 100 | > 73.3 | TGI [8]: > 100 µM |
| NCCn1cnc2nc(NC(=O)c3ccccc3)[nH]c(=O)c21 | > 100 | – | > 100 | > 100 | > 100 | > 100 | TGI [7]: > 100 µM |
| C/C=C/C=C/CCCCCCCCCCCCC[C@]1(OC)C=CC(CC(=O)OC)OO1 (stereo not given in full) | 51.1 | 44.6 µM | – | 41.9 | 33 | 28.2 | GI50 [1]: 23.9 µM; GI50 [7]: 24 µM; TGI [7]: 56 µM; GI50 [2]: 24.2 µM; GI50 [4]: 20.2 µM; GI50 [6]: 14.7 µM |
| Cc1cccc(C)c1NC(=O)CCCC(=O)C(C#N)c1ccc(Cl)cc1 (stereo not given) | > 100 | – | > 100 | > 100 | > 100 | > 100 | – |
| CCCCCCCC(=O)NS(=O)(=O)c1ccccc1 | – | – | – | – | – | – | TGI [8]: > 100 µM |
| O=C1c2ccccc2C(=O)c2sc(Nc3ccc(Cl)cc3)nc21 | 33.9 | 4.7 µM | 8.03 | 3.41 | 1.56 | 3.1 | – |
| Cc1cc(Cl)cc2c1NC(=O)C2(O)CC(=O)c1ccc(F)cc1 (stereo not given) | > 100 | 66.4 µM | > 100 | > 100 | 17.9 | – | – |
| Cc1ccccc1NC(=O)C(=O)CC(=O)C1CCOC1=O (stereo not given) | > 100 | > 100 µM | > 100 | > 100 | > 100 | > 100 | – |
| COc1ccc(/C(=C\c2cc(OC)c(OC)c(OC)c2)C(=O)O)cc1 | 45 | 62.3 µM | > 100 | > 100 | > 100 | > 100 | – |
| CCOC(=O)C1=C(c2ccccc2)NC(c2ccccc2)=C(C(=O)OCC)c2c1c(=O)cc[nH]c2=O | > 100 | > 100 µM | > 100 | > 100 | > 100 | > 100 | TGI [7]: > 100 µM |
